According to ChEMBL document CHEMBL5365491, “Synthesis and anti-tumor activities in human leukemia-derived cells of polyenylpyrroles with a methyl group at the conjugated polyene terminus” (Bioorg Med Chem Lett, 2023):

Legend:
Assay type in all cases: functional, cell-based
[1] = tested on: CCRF-CEM; test: Antitumor activity against human CCRF-CEM cells assessed as cell killing activity
[2] = tested on: Raji; test: Antitumor activity against human Raji cells assessed as cell killing activity
[3] = tested on: TF-1; test: Antitumor activity against human TF-1 cells assessed as inhibition in cell killing activity
[4] = tested on: THP-1; test: Antitumor activity against human THP-1 cells assessed as inhibition in cell killing activity
[5] = tested on: K562; test: Antitumor activity against human K562 cells assessed as inhibition in cell killing activity
[6] = tested on: Raji; test: Growth inhibition of human Raji cells measured after 72 hrs by CCK8 assay
[7] = tested on: TF-1; test: Growth inhibition of human TF-1 cells measured after 72 hrs by CCK8 assay; conditions: TF-1, 72 h
[8] = tested on: THP-1; test: Growth inhibition of human THP-1 cells measured after 72 hrs by CCK8 assay; conditions: THP-1, 72 h
[9] = tested on: K562; test: Growth inhibition of human K562 cells measured after 72 hrs by CCK8 assay; conditions: K562, 72 h
[10] = tested on: CCRF-CEM; test: Growth inhibition of human CCRF-CEM cells measured after 72 hrs by CCK8 assay

Row | SMILES | IC50 ([1]; read-out: IC50) | IC50 ([1]; read-out: pIC50 (converted)) | IC50 [2] | IC50 [3] | IC50 [4] | IC50 [5] | IC50 [6] | also measured
1 | CCOC(=O)/C(C)=C/C=C/C=C/C=C/c1[nH]ccc1Cl | 63 nM | 63.1 nM | > 10000 nM | 37 nM | 150 nM | 1600 nM | – | –
2 | CCOC(=O)/C(C)=C/C=C/c1[nH]ccc1Cl | 8400 nM | 7940 nM | > 10000 nM | – | – | – | – | –
3 | COc1cc(/C=C/C=C/C=C/C=C/c2[nH]ccc2Cl)oc(=O)c1 [AUXARCONJUGATIN B] | – | 501 nM | – | 440 nM | 1300 nM | 4900 nM | – | –
4 | CCOC(=O)/C(C)=C/C=C/C=C/C=C/c1cccn1C | > 10000 nM | > 10000 nM | > 10000 nM | – | – | – | – | –
5 | COc1cc(\C(C)=C/C=C/C=C/C=C/c2[nH]ccc2Cl)oc(=O)c1C | – | 1580 nM | – | – | – | – | 10000 nM | –
6 | CCOC(=O)/C=C/C=C/C=C/C=C/c1[nH]ccc1Cl | – | 251 nM | – | – | – | – | 10000 nM | IC50 [7]: 230 nM; IC50 [8]: 1200 nM; IC50 [9]: > 10000 nM
7 | CCOC(=O)/C=C/C=C/C=C/C=C/c1cccn1C | – | > 10000 nM | – | – | – | – | 10000 nM | IC50 [10]: 10000 nM
8 | CCOC(=O)/C(C)=C/C=C/C=C/C=C/c1ccc[nH]1 | 90 nM | 79.4 nM | 1600 nM | 92 nM | 98 nM | 280 nM | – | –
9 | CCOC(=O)/C(C)=C/C=C/C=C/c1[nH]ccc1Cl | 230 nM | 251 nM | > 10000 nM | – | – | – | – | –
10 | CCOC(=O)/C=C/C=C/C=C/C=C/c1ccc[nH]1 | – | 1260 nM | – | 250 nM | 770 nM | – | – | –
